Where two headings read alike, the source gives them in different places.
Legend:
[1] = ref Wojtowicz-Praga et al, 1998, cited from earlier work
gelatinase A = settings: background data, no reference given; read-out: IC50 against gelatinase A; cited from earlier work
[2] = test system: MDA-435 human breast carcinoma; set-up: method as in British Biotech, unpublished data; settings: MDA-435 human breast carcinoma model; ref British Biotech, unpublished data; cited from earlier work
[3] = test system: processing of cell-bound TNF-α; settings: relative to marimastat; background data, no reference given; cited from earlier work
clinical = settings: human, in vivo; for half-life: T1/2; for AUC(0-t): AUC0–24
Method: Blood samples were collected in heparinised tubes before treatment, every 15 min for 2 h, at 2 h 30 min, 3, 4, 6, 8, 10 and 24 h on days 1 and 14 for the measurement of BB-3644. Blood samples were kept on ice. They were centrifuged at 4°C (1500 g for 10 min) within 30 min of collection. The supernatant plasma was collected and frozen at −70°C or cooler, until sent for analysis. Samples were analysed centrally in the Department of Drug Metabolism and Pharmacokinetics at British Biotech, UK.
Samples were analysed for BB-3644 content using a validated reverse-phase HPLC method with mass spectrometric detection. The limit of quantification was 1 ng ml^−1. The data were analysed using WinNonlin v2.1 Standard version (Pharsight Corporation, USA). PK parameters were derived from individual plasma concentration–time data, using noncompartmental analysis.
On the days of PK sampling, only the morning dose of BB-3644 was taken.

enkephalinase = settings: background data, no reference given; read-out: IC50 against enkephalinase; cited from earlier work
B16-BL6 murine melanoma = test system: B16-BL6 murine melanoma; set-up: method as in British Biotech, unpublished data; settings: B16-BL6 murine melanoma model; ref British Biotech, unpublished data; cited from earlier work
[4] = rhesus monkey, in vivo; cited from earlier work
[5] = Phase I dose-escalation study: DLT, MTD and adverse events
Method: Patients over the age of 18 were required to be of ECOG performance status 0, 1 or 2, and to have a predicted survival of at least 3 months.
This was a phase I, open-label, dose-escalation study. BB-3644 was supplied as capsules comprising 5, 10, 20 and 40 mg BB-3644 (with maize starch, colloidal silica, magnesium stearate and lactose) by British Biotech Pharmaceuticals Ltd, UK. BB-3644 was administered orally twice daily for 84 days to cohorts of patients at doses 5, 10, 20 and 30 mg. […] Dose-limiting toxicity was defined as ‘an adverse reaction likely to be caused by the study drug and unlikely to be attributed to concurrent disease or other drugs or chemicals’. Essentially, any toxicity graded by CTC criteria as at least grade II was considered to be a DLT, as this could preclude chronic oral administration of a drug. If one patient experienced DLT, the cohort size was increased to six patients for that dose level. Further dose escalation was performed, provided that no more than […] patients experienced DLT by day 28. Nine patients were to be treated at the highest dose level. Patients experiencing DLT were eligible to continue treatment at a reduced dose following resolution of toxicity.
Physical examination, chest radiograph, haematology and serum chemistry were checked at baseline, every 4 weeks and at study termination. […] Patients were also reviewed by an opthalmologist at these times, to check the visual acuity, visual fields, and examine the whole eye and the fundi.

[6] = cited from earlier work
[7] = set-up: method as in British Biotech, unpublished data; settings: marmosets; ref British Biotech, unpublished data; cited from earlier work
[8] = test system: HODP.IP rat mammary carcinoma cells; set-up: method as in British Biotech, unpublished data; settings: lung colonisation model, ref British Biotech, unpublished data; cited from earlier work
collagenase-3 = settings: background data, no reference given; read-out: IC50 against collagenase-3; cited from earlier work
solid tumours = experiment: Assessment of response in the phase I study; format: in vivo, patients
Method: Disease assessment was performed at baseline and repeated at 84 days or at withdrawal from the study. Patients were reviewed 4 weeks after withdrawal from the study.
Response was formally assessed radiologically after 3 months of therapy.

[9] = of the 13 patients that completed 12 weeks of therapy

For CNC(=O)[C@@H](NC(=O)[C@H](CC(C)C)[C@H](O)C(=O)NO)C(C)(C)C [marimastat], the treatment-limiting toxicities ([1]; clinical testing of marimastat, Tierney et al, 1999, Evans et al, 2001) is listed as “Musculoskeletal pain and inflammation” and the “AUC achieved at the MTD” value ([1]; phase I studies of marimastat) is listed as 2623 ng·h/mL.

For CO[C@H](C(=O)NO)[C@@H](CC(C)C)C(=O)N[C@H](C(=O)Nc1ccccn1)C(C)(C)C [BB-3644], the IC50 (gelatinase A) is given as 80 nM, the “activity in inhibiting tumour growth” value [2] is given as “activity in inhibiting tumour growth” and the “fold more active than marimastat in inhibiting the processing of cell-bound TNF-α” value [3] is given as greater than 10 fold. For the same compound, the “time to mean maximal concentration, range over dose levels” value (clinical) was 30 to 90 min, the T1/2 (clinical; 5 mg) was 4 h and the Tmax (clinical; 5 mg) was 1 h. It also gave a half-life (clinical; 5 mg) of 2 h, a Tmax (clinical; 5 mg, Tmax) of 0.75 h and a Cmax (clinical; 10 mg) of 179 ng/mL. It also gave a T1/2 (clinical; 10 mg) of 2.5 h, a Tmax (clinical; 10 mg) of 1 h and a Cmax (clinical; 10 mg, Cmax) of 114 ng/mL. The half-life (clinical; 10 mg) was 1.5 h, the Tmax (clinical; 10 mg, Tmax) was 0.5 h and the “AUC0–24” value (clinical; 20 mg) was 1248 ng·h/mL. It also gave a Cmax (clinical; 20 mg) of 282 ng/mL, a T1/2 (clinical; 20 mg) of 3 h and a Tmax (clinical; 20 mg) of 0.75 h. The AUC(0-t) (clinical; 20 mg) was 781 ng·h/mL, the Cmax (clinical; 20 mg, Cmax) was 232 ng/mL and the half-life (clinical; 20 mg) was 1.5 h. For the same compound, the Tmax (clinical; 20 mg, Tmax) was 0.5 h, the “AUC0–24” value (clinical; 30 mg) was 4401 ng·h/mL and the Cmax (clinical; 30 mg) was 536 ng/mL. The Tmax (clinical; 30 mg) was 1.75 h, the AUC(0-t) (clinical; 30 mg) was 2520 ng·h/mL and the Cmax (clinical; 30 mg, Cmax) was 315 ng/mL. The half-life (clinical; 30 mg) was 6 h, the Tmax (clinical; 30 mg, Tmax) was 1.5 h and the IC50 (enkephalinase) was 40 nM. For the same compound, the “activity in inhibiting tumour growth” value (B16-BL6 murine melanoma) was “activity in inhibiting tumour growth”, the principal toxicity [4] was “cell debris in the gall bladder, with mucosal erosions and epithelial hyperplasia” and the “maximum tolerated dose (MTD)” value ([5]; 28 days of oral treatment) was 20 mg bd. The “maximum tolerated dose (MTD)” value ([5]; chronic oral dosing (>28 days, up to 84 days)) was 5 mg bd, the “patients with musculoskeletal DLTs (number)” value ([5]; human, in vivo, 84 days) was 14 and the “patients with musculoskeletal DLTs (share)” value ([5]; human, in vivo, 84 days) was 64%. For the same compound, the “SAE considered possibly related to the study drug” value ([5]; in vivo) was “thromboembolic episodes”, the “ophthalmological or gall bladder-related toxicity” value ([5]; in vivo) was “no significant opthalmological or gall bladder-related toxicity” and the “patients who developed phlebitis” value ([5]; in vivo) was “Two”. The “patients with dose-limiting malaise (NCI CTC toxicity >grade 1)” value ([5]; in vivo) was “Two”, the “dose-limiting toxicity (DLT), nature” value ([5]; in vivo, po) was “musculoskeletal pain” and the “toxicity at higher doses” value ([6]; dog, in vivo) was “Encephalopathy”. The ocular changes ([6]; dogs, ref British Biotech, unpublished data) was “conjunctival hyperaemia, chemosis, corneal stromal limbal vascularisation and diffuse corneal haze and flocculation”, the joint toxicity [7] was “induced inflammation of joint ligaments and tendons” and the principal toxicity [7] was “cell debris in the gall bladder, with mucosal erosions and epithelial hyperplasia”. For the same compound, the “tendinitis of the hind limbs” value [8] was “did not cause tendinitis of the hind limbs”, the IC50 (collagenase-3) was 3 nM and the “therapeutic activity, overall conclusion” value (solid tumours; 22 patients, 5 to 30 mg bd) was “no evidence of beneficial therapeutic activity”. The “patients with progressive disease radiologically” value (solid tumours; [9]) was 11 and the “patients with stable disease radiologically” value (solid tumours; [9]) was “two”.

From paper PMC2410175, “A phase I and pharmacological study of the matrix metalloproteinase inhibitor BB-3644 in patients with solid tumours” (British Journal of Cancer, 2004)
